According to the supplement of paper PMC10307832:

Columns and labels:
Test in all cases: relative viability (nuclei count vs DMSO), 5 days (fraction); higher = more cells survive
AGI-6780 + Crizotinib = compound: O=C(Nc1cccc(C(F)(F)F)c1)Nc1cc(S(=O)(=O)NC2CC2)ccc1-c1ccsc1 [AGI-6780] + C[C@@H](Oc1cc(-c2cnn(C3CCNCC3)c2)cnc1N)c1c(Cl)ccc(F)c1Cl [Crizotinib] (partner 1 µM)
Summary of the method: (§1)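 Relative viability equals treated-well nuclei counts divided by vehicle-well nuclei counts. Counts came from 4× images of lung cancer cell lines grown in 1536-well plates for 5 days after pin-tool dosing on the day after seeding. Dosing used one drug alone or a fixed anchor-drug dose plus five library-drug doses (not always all listed) in √10 steps, and values are medians of duplicate plates.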

AGI-6780 + Pemetrexed = compound: O=C(Nc1cccc(C(F)(F)F)c1)Nc1cc(S(=O)(=O)NC2CC2)ccc1-c1ccsc1 [AGI-6780] + Nc1nc2[nH]cc(CCc3ccc(C(=O)N[C@@H](CCC(=O)O)C(=O)O)cc3)c2c(=O)[nH]1 [Pemetrexed] (partner 0.2 µM)
Summary of the method: as §1

AGI-6780 + Dasatinib = compound: O=C(Nc1cccc(C(F)(F)F)c1)Nc1cc(S(=O)(=O)NC2CC2)ccc1-c1ccsc1 [AGI-6780] + Cc1nc(Nc2ncc(C(=O)Nc3c(C)cccc3Cl)s2)cc(N2CCN(CCO)CC2)n1 [Dasatinib] (partner 0.075 µM)
Summary of the method: as §1

AGI-6780 + Lapatinib = compound: O=C(Nc1cccc(C(F)(F)F)c1)Nc1cc(S(=O)(=O)NC2CC2)ccc1-c1ccsc1 [AGI-6780] + CS(=O)(=O)CCNCc1ccc(-c2ccc3ncnc(Nc4ccc(OCc5cccc(F)c5)c(Cl)c4)c3c2)o1 [Lapatinib] (partner 2 µM)
Summary of the method: as §1

Cell Line	relative viability (AGI-6780 + Crizotinib; first compound 0.08 µM)	relative viability (AGI-6780 + Crizotinib; first compound 0.253 µM)	relative viability (AGI-6780 + Crizotinib; first compound 0.8 µM)	relative viability (AGI-6780 + Crizotinib; first compound 2.53 µM)	relative viability (AGI-6780 + Crizotinib; first compound 8 µM)	relative viability (AGI-6780 + Pemetrexed; first compound 0.08 µM)	relative viability (AGI-6780 + Pemetrexed; first compound 0.253 µM)	relative viability (AGI-6780 + Pemetrexed; first compound 0.8 µM)	relative viability (AGI-6780 + Pemetrexed; first compound 2.53 µM)	relative viability (AGI-6780 + Pemetrexed; first compound 8 µM)	relative viability (AGI-6780 + Dasatinib; first compound 0.08 µM)	relative viability (AGI-6780 + Dasatinib; first compound 0.253 µM)	relative viability (AGI-6780 + Dasatinib; first compound 0.8 µM)	relative viability (AGI-6780 + Dasatinib; first compound 2.53 µM)	relative viability (AGI-6780 + Dasatinib; first compound 8 µM)	relative viability (AGI-6780 + Lapatinib; first compound 0.08 µM)	relative viability (AGI-6780 + Lapatinib; first compound 0.253 µM)	relative viability (AGI-6780 + Lapatinib; first compound 0.8 µM)	relative viability (AGI-6780 + Lapatinib; first compound 2.53 µM)	relative viability (AGI-6780 + Lapatinib; first compound 8 µM)
LOU-NH91	0.753	0.764	0.712	0.705	0.715	0.402	0.395	0.382	0.389	0.429	0.533	0.516	0.553	0.531	0.558	0.773	0.836	0.78	0.587	0.737
HCC-15	0.831	0.833	0.834	0.813	0.825	0.227	0.245	0.204	0.215	0.207	0.732	0.636	0.736	0.437	0.621	0.896	0.824	0.971	0.83	0.856
HCC-827	0.965	0.9	0.861	0.981	0.943	0.237	0.257	0.264	0.256	0.27	0.363	0.23	0.337	0.273	0.293	0.201	0.215	0.197	0.191	0.179
NCI-H1703	0.906	0.612	1.11	0.665	0.824											1.11	0.87	1.82	1.13	0.93
NCI-H2405	0.839	0.801	0.583	0.827	0.829		1.05	0.902	0.975	1.05	0.217	0.205	0.188	0.194	0.203	1.05	1.08	0.938		1.1
PC-3 [JPC-3]	1.01	0.928	0.971	0.994	0.977		1.08	1.26	1.19	0.987	0.992	0.974	0.944	0.922	0.923	0.467	0.513	0.451	0.416	0.48
NCI-H2085	0.817	1.01	0.926	0.933	0.927	0.935	0.963	0.911	1.14	0.906	0.272	0.255	0.276	0.24	0.243	0.787	0.771	0.843	0.724	0.78
201T	1.04	1.04	1.01	1.03	1.05	0.34	0.325	0.345	0.31	0.291	0.613	0.53	0.564	0.476	0.6	1.03	1.01	1.02	1.01	1.02
NCI-H1975	1.07	1.05	0.965	1.02	0.876	0.313	0.275	0.299	0.288	0.29	0.388	0.345	0.395		0.312	0.861	1.01	0.801	0.875	0.951
NCI-H2023	0.637	0.541	0.856	0.554	0.731	0.283	0.235	0.242	0.256	0.204	0.591	0.624	0.617	0.507	0.529	0.902	0.992	1	0.556	0.906
BEN	0.891	0.738	0.955		0.966	0.644	0.876	0.718		0.965	0.219	0.348	0.291	0.3	0.377	0.569	0.703	0.91		0.637
RERF-LC-KJ	0.769	0.879	0.808	0.791	0.792	0.497	0.466	0.469	0.497	0.466	0.895	0.93	0.822	0.511	0.667	0.828	0.923	0.788	0.675	0.859
SK-MES-1	0.942	0.964	0.935	0.871	0.953	0.991	0.929	0.836	0.985	0.929	0.379	0.428	0.367	0.24	0.338	0.482	0.524	0.441	0.407	0.427
PC-14	0.902	0.867	0.971	0.851	0.928	0.143	0.147	0.141	0.16	0.134	0.233	0.256	0.308	0.276	0.24	0.312	0.348	0.312	0.314	0.291
NCI-H1437	0.974	0.87	0.922	0.965	0.916	0.338	0.309	0.356	0.346	0.314	0.371	0.493	0.404	0.306	0.342	0.825	0.834	0.863	0.838	0.941
NCI-H1993	0.899	0.913	0.931	0.84	1	0.5	0.669	0.634		0.542	0.661	0.724	0.713	0.485	0.549	0.91	0.86	0.804	0.749	0.933
LK-2	0.262	0.209	0.271		0.211	0.228	0.359	0.28		0.366	0.242	0.298	0.286		0.315	0.867	0.951	1.14		0.958
NCI-H838	0.979	0.795	0.973	0.812	0.844	0.258	0.251	0.249	0.23	0.225	0.312	0.357	0.307	0.261	0.321	1.18	0.99	1.05	0.871	1.23
HCC-44	0.769	0.811	0.82	0.855	0.821	0.657	0.681	0.601	0.631	0.616						0.989	1	1.03	0.96	1.04
IA-LM	1.12	0.76	1.09	0.827	0.876											1.01	0.845	0.928	0.83	0.896

Cell Line	relative viability (AGI-6780 + Crizotinib; first compound 0.08 µM)	relative viability (AGI-6780 + Crizotinib; first compound 0.253 µM)	relative viability (AGI-6780 + Crizotinib; first compound 0.8 µM)	relative viability (AGI-6780 + Crizotinib; first compound 2.53 µM)	relative viability (AGI-6780 + Crizotinib; first compound 8 µM)	relative viability (AGI-6780 + Pemetrexed; first compound 0.08 µM)	relative viability (AGI-6780 + Pemetrexed; first compound 0.253 µM)	relative viability (AGI-6780 + Pemetrexed; first compound 0.8 µM)	relative viability (AGI-6780 + Pemetrexed; first compound 2.53 µM)	relative viability (AGI-6780 + Pemetrexed; first compound 8 µM)	relative viability (AGI-6780 + Dasatinib; first compound 0.08 µM)	relative viability (AGI-6780 + Dasatinib; first compound 0.253 µM)	relative viability (AGI-6780 + Dasatinib; first compound 0.8 µM)	relative viability (AGI-6780 + Dasatinib; first compound 2.53 µM)	relative viability (AGI-6780 + Dasatinib; first compound 8 µM)	relative viability (AGI-6780 + Lapatinib; first compound 0.08 µM)	relative viability (AGI-6780 + Lapatinib; first compound 0.253 µM)	relative viability (AGI-6780 + Lapatinib; first compound 0.8 µM)	relative viability (AGI-6780 + Lapatinib; first compound 2.53 µM)	relative viability (AGI-6780 + Lapatinib; first compound 8 µM)
NCI-H1734	0.753	0.648	0.757		0.752	0.479	0.438	0.429	0.426	0.42	0.459	0.461	0.473	0.347	0.435	0.961	1.09	1.07		1.07
NCI-H1944	1.16	1.12	1.25	0.926	1.02	0.642	0.627	0.611		0.684	0.239	0.232	0.233		0.233	0.928	0.861	0.784	0.544	0.92
CAL-12T	0.686	0.681	0.61	0.87	0.716	1.25	1.27	1.35	1.25	1.26	0.549	0.501	0.676	0.4	0.487		0.582	0.876	0.572	0.619
LXF-289	0.84	0.798	0.795	0.83	0.771	0.912	0.763	0.964	1.04	0.919	0.228	0.213	0.192	0.155	0.204	0.903	0.897	0.906	0.936	0.831
NCI-H661	1.02	0.921	1.22	0.996	1.08	0.909	0.956	0.967	0.969	0.905	0.819	0.998	0.986	0.858	1.02	0.549	0.518	0.616	0.474	0.516
A-427	1.02	0.897	1.06	0.693	0.901		0.932	1.01	0.929	0.971	0.696	0.66	0.759	0.582	0.668	1.09	0.997	1.01	0.945	0.929
NCI-H1648						0.655	0.884	0.864	0.841	0.779										
NCI-H441	0.766	0.988	1.05	0.513	0.887	0.288	0.241	0.236	0.25	0.248	0.669	0.639	0.597	0.548	0.472					
SW 900						0.461	0.484	0.457	0.524	0.469	0.542	0.675	0.555	0.587	0.571					
ABC-1	1.1	1.17	1.69	1.2	0.978						0.589	0.57	0.632	0.553	0.712	1.26	1.2	1.27	1.16	1.27
NCI-H1793						0.838	0.926	0.964	0.671	0.959	0.399	0.389	0.455	0.263	0.41	0.819	0.811	0.779	0.491	0.723
NCI-H1395						0.779	0.975	0.945	0.729	0.843	0.403	0.478	0.428	0.36	0.376	0.941	1.06	1.01		1.04
NCI-H522						1.23	1.04	0.913		1.05	0.941	0.85	1.01	0.812	0.836					
A549	0.763	0.765	0.855	0.625	0.836											0.999	0.968	1.14	0.927	1.06
LCLC-103H	1.08	1.12	1	1.03	1.01	0.455	0.421	0.477	0.51	0.473	0.462	0.565	0.51	0.318	0.503					
NCI-H1299	0.995	0.956	1.01	0.945	0.941											1.01	0.978	0.925	0.929	0.968
Calu-6	0.822	0.829	0.948	0.824	0.752											0.989	1.01	1.22	1.14	0.974
NCI-H727	0.887	0.702	0.842	0.844	0.843						0.35	0.297	0.386	0.314	0.398	1.05	0.961	0.93	0.712	0.811
ChaGo-K-1	1.18	1.06	1.43	0.959	1.14	0.26	0.267	0.261	0.255	0.25	0.612	0.543	0.576	0.524	0.642					
